Entries after “also recorded” stand apart in the source; their conditions may differ.
Assays:
TM4 peptide of FZD6 = test: analytical size-exclusion chromatography of TM peptides; type: binding, human; settings: TDW + 0.01% DDM; 500 µM each peptide; Superdex 30; 0.8 ml min^−1; room temperature; 215 nm; 2 h incubation
Method: Analytical SEC was performed on an ÄKTA Explorer with a Superdex 30 analytical column (GE Healthcare) equilibrated with TDW + 0.01% DDM. Peptides were eluted with a flow rate of 0.8 ml min^−1 at room temperature. Elution profile was monitored by UV absorbance at 215 nm. For the binding experiments, the peptides were incubated together in TDW + 0.01% DDM at room temperature for 2 h.

FZD6-TM4 = biological target: T1, FZD6-TM4 (Homo sapiens, UniProt O60353); test: isothermal titration calorimetry of TM peptides; type: binding; settings: 820 µM TM5 or TM5 mut into 165 µM TM4; 0.5% DDM; 20 °C; one set of sites
T1 construct: purchased Pepscan Therapeutics (Lelystad, Netherlands); host or cells: chemical synthesis (Fmoc solid phase)
T1 sequence (O60353 with tags, fused parts or gaps limits assumed): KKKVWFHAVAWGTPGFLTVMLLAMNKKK
Method: (§1) CD spectra were recorded using a J-810 spectropolarimeter (Jasco, Easton, MD, USA) in a 0.1 cm quartz cuvette. Far-UV CD spectra were collected over 190–260 nm. ITC measurements were carried out at 20 °C on an ITC (VP–ITC 200, MicroCal). 820 µM FZD6 TM5 and 165 µM FZD6 TM4 were dissolved in 0.5% DDM in water. 2 µl of TM5 peptide were injected into 260 µl TM4 during each titration. The ITC data were analyzed with the Origin 7.0 software.

[1] = circular dichroism of synthetic TM peptides; type: physicochemical
Method: as §1
Supplementary Figure 5: Circular dichroism (CD) and isothermal titration calorimetry (ITC) experiments for structural analysis of synthetic peptides resembling TM1, 4, 5 and mutant TM5 and of peptide-peptide interactions, related to Figure 3. Synthetic peptides (for sequence see Supplementary Fig. 9) resembling TM1 (a), 4 (b), 5 (c) and mutant TM5 (d) were used for CD experiments in triple distilled water with increasing DDM concentrations (0% DDM – black, 0.01% DDM – blue, 0.1% DDM – green and 0.5% DDM – red). (c)TM5 is unstructured in TDW and begins to gain structure at 0.1% DDM. It forms a clear α-helical structure in 0.5% DDM. The triple mutated TM5 (d) forms an α-helix in a much lower DDM concentration (0.01% DDM). […]

[2] = CD, triple distilled water with 0, 0.01, 0.1, 0.5% DDM

| DDM concentration at which peptide begins to gain structure [1, 2] | DDM concentration at which α-helix forms [1, 2] | secondary structure in detergent (CD) ([1]; DDM detergent solution, lipophilic environment) | secondary structure in TDW (CD) ([1]; triple distilled water, 0% DDM, 190–260 nm) | Sequence | SEC elution volume in combination with TM4 (TM4 peptide of FZD6) | ITC affinity (dissociation constant, K D) to TM4 (FZD6-TM4) |
| --- | --- | --- | --- | --- | --- | --- |
| 0.1% | 0.5% | structured and α-helical | unstructured | KKLDASRYFVLLPLCLCVFVGLSLLLAGIISKKK [TM5, synthetic peptide of FZD6 transmembrane helix 5] | eluted at a greater volume than TM4 and TM5 alone | micromolar affinity; also recorded: in the micromolar range |
| – | 0.01% | – | – | WKKLAASAAFVLLPLCLCVFVGLSLLLAGIISKKK [TM5 mut, TM5 peptide with D365A, R368A, Y369A mutations] | did not result in a shift to a higher elution volume | does not interact |
